Measured values taken from patent US9274102B2, “Method of screening for an inhibitor of odor cause by furaneol” (Kao Corporation, priority 2013, dated 2016).

Columns and labels:
olfactory receptor OR5K1 [1] = biological target: T1, olfactory receptor OR5K1 (Homo sapiens, UniProt Q8NHB7); assay: Antagonistic activity against the response of OR5K1 to Furaneol (luciferase reporter gene assay, HEK293 cells); assay type: cell-based; settings: Furaneol 3 mM, test substance 100 μM; OR5K1-expressing HEK293 cells; read-out: rate of inhibition of the response of OR5K1 to Furaneol
T1 construct: Flag-Rho tag (N); expressed in transfected cells; host or cells: HEK293
T1 sequence (Q8NHB7 1-308): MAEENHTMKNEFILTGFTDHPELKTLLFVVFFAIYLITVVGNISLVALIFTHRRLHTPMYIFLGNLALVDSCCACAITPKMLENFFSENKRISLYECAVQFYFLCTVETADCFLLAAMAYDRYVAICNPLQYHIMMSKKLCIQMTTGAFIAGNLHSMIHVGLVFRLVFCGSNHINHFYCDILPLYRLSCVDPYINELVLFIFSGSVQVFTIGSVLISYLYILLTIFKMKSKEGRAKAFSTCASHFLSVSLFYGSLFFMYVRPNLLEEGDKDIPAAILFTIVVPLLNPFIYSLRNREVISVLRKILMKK
Procedure: 84 types of test substances were examined for their antagonistic activity against the response of the olfactory receptor OR5K1 to Furaneol.
Furaneol (3 mM) and each test substance (100 μM) were added to HEK293 cells allowed to express the olfactory receptor OR5K1 by the same procedures as in Example 2. The response of the olfactory receptor was measured to evaluate change in receptor response caused by the addition of the test substance.
The rate of inhibition of the receptor response by the test substance was calculated as follows: firefly luciferase-derived luminescence intensity (Y) in the olfactory receptor OR5K1-expressing cells without Furaneol stimulation was subtracted from firefly luciferase-derived luminescence intensity (X) induced by stimulation with Furaneol alone to determine receptor activity (X−Y) based on the stimulation with Furaneol alone. Likewise, the luminescence intensity (Y) in the cells without Furaneol stimulation was subtracted from luminescence intensity (Z) induced by stimulation with the mixture of Furaneol and the test substance to determine receptor activity (Z−Y) in the presence of the test substance. The rate of reduction in the receptor activity (Z−Y) in the presence of the test substance with respect to the receptor activity (X−Y) based on the stimulation with Furaneol alone was calculated according to an expression shown below to determine the rate of inhibition of the receptor response by the test substance. In this assay, a plurality of independent duplicate experiments were performed. An average of the experiments in each run was obtained. Rate of inhibition (%)={1−(Z−Y)/(X−Y)}×100

olfactory receptor OR5K1 [2] = biological target: T1, olfactory receptor OR5K1; assay: Luciferase reporter gene assay: response of olfactory receptors expressed on HEK293 cells to Furaneol; assay type: cell-based
Procedure: HEK293 cells expressing each of 400 types of human olfactory receptors were prepared. Each reaction solution having the composition shown in Table 1 was prepared, then left standing for 15 minutes in a clean bench, and then added to each well of a 96-well plate (Becton, Dickinson and Company). Subsequently, the HEK293 cells (3×10^5 cells/cm^2) were inoculated thereto at 100 μL/well and then cultured at 37° C. for 24 hours in an incubator kept at 5% CO2.
The olfactory receptors expressed on the HEK293 cells are conjugated with intracellular Gαs to activate adenylate cyclase, thereby increasing intracellular cAMP levels. In this study, their responses to Furaneol were measured using luciferase reporter gene assay which involved monitoring increase in intracellular cAMP level as luminescence intensity derived from a firefly luciferase gene (fluc2P-CRE-hygro). […]
A medium was removed from the cultures prepared in the preceding paragraph 3). […] The luciferase activity was measured using Dual-Glo™ luciferase assay system (Promega Corp.) according to the instruction manual of the product. Firefly luciferase-derived luminescence intensity induced by stimulation with Furaneol was divided by luminescence intensity in the cells without Furaneol stimulation to calculate a value as fold increase, which was in turn used as an index for response intensity. […]

Structure (SMILES)	inhibition at 100 µM (olfactory receptor OR5K1 [1]) [%]	concentration dependence of OR5K1 response to Furaneol (olfactory receptor OR5K1 [2]; Furaneol 0, 3, 10, 30, 100, 300, 1000 and 3000 μM, OR5K1 with human RTP1S on HEK293 cells, FIG. 2)	response of olfactory receptor to Furaneol (fold increase of luminescence) (olfactory receptor OR5K1 [2]; Furaneol 3 mM, 400 types of human olfactory receptors screened in HEK293 cells, FIG. 1)
CC(=O)O[C@]1(C)CC[C@@]23C[C@@H]1C(C)(C)[C@@H]2CC[C@H]3C [Cedryl acetate]	≥ 50		
CC(C)=CCCC(C)=CC=O [Citral]	≥ 75		
CC1=C(O)C(=O)C(C)O1 (centres unmarked) [Furaneol, 2,5-dimethyl-4-hydroxy-3(2H)-furanone]		concentration-dependent response	only the olfactory receptor OR5K1 exhibited a response
CC(=O)C1(C)CC2=C(CCCC2(C)C)CC1C (centres unmarked) [Iso E Super, 7-Acetyl-1,2,3,4,5,6,7,8-octahydro-1,1,6,7-tetramethyl-naphthalene]	≥ 75		
CC1(CO)CC1CC1CC2CC2(C)C1(C)C [Javanol(R), (1-Methyl-2-(1,2,2-trimethylbicyclo[3.1.0]-hex-3-ylmethyl)cyclopropyl)methanol]	≥ 40		
CC1C/C=C/CCCCCCCCCC(=O)C1 [Muscenone(R) Delta, (5E)-3-Methylcyclopentadec-5-en-1-one]	≥ 75		
CC(=O)c1cc2c(cc1C)C(C)(C)C(C)CC2(C)C [Tonalid(R), 1-(5,6,7,8-tetrahydro-3,5,5,6,8,8-hexamethyl-2-naphthalenyl)-ethanone]	≥ 75		
CC(=O)C1=C(C)C2CC3(C1)C(C)CCC3C2(C)C (centres unmarked) [acetylcedrene, 1-(2,3,4,7,8,8a-hexahydro-3,6,8,8-tetramethyl-1H-3a,7-methanoazulen-5-yl)-ethanone]	≥ 75		
CCC(=CCC1CC=C(C)C1(C)C)CO (centres unmarked) [bangalol, 2-Ethyl-4-(2,2,3-trimethyl-3-cyclopenten-1-yl)-2-buten-1-ol]	≥ 50		
CC(C)(C)c1ccc(CCC=O)cc1 [bourgeonal, 3-(4-tert-Butylphenyl)propanal]	≥ 75		
CC1COCc2cc3c(cc21)C(C)(C)C(C)C3(C)C (centres unmarked) [galaxolide, 4,6,6,7,8,8-Hexamethyl-1,3,4,6,7,8-hexahydrocyclopenta[g]isochromene]	≥ 75		
CC(=O)/C(C)=C/C1C(C)=CCCC1(C)C (centres unmarked) [methyl ionone-G, (E)-3-Methyl-4-(2,6,6-trimethylcyclohex-2-en-1-yl)but-3-en-2-one]	≥ 75		
Cc1ccc(C(C)C)c(O)c1 [thymol, 5-Methyl-2-(1-methylethyl)-phenol]	≥ 75		
